Experiment [1] relates to Green Peach Aphid (Myzus persicae) (MYZUPE). The experiment can be described thus: Bioassay on Green Peach Aphid (GPA), foliar spray on infested cabbage seedlings. In kind it is in vivo. Conditions: 72 h, 200 ppm foliar spray on cabbage, live aphids counted after three days, read-out: MYZUPE rating (% Mortality; Abbott corrected % control). Here is the method:
Example A Bioassays on Green Peach Aphid (“GPA”) (Myzus persicae) (MYZUPE.)
Several molecules disclosed herein were tested against GPA using procedures described below.
Cabbage seedling grown in 3-in pots, with 2-3 small (3-5 cm) true leaves, were used as test substrate. The seedlings were infested with […] (wingless adult and nymph stages) one day prior to chemical application. Four pots with individual seedlings were used for each treatment. Test compounds (2 mg) were dissolved in 2 mL of acetone/MeOH (1:1) solvent, forming stock solutions of 1000 ppm test compound. The stock solutions were diluted 5× with 0.025% Tween 20 in water to obtain the solution at 200 ppm test compound. A hand-held aspirator-type sprayer was used for spraying a solution to both sides of the cabbage leaves until runoff. Reference plants (solvent check) were sprayed with the diluent only containing […] acetone/MeOH (1:1) solvent. Treated plants were held in a holding room for three days at approximately 25° C. and ambient relative humidity (RH) prior to grading. Evaluation was conducted by counting the number of live aphids per plant under a microscope. Percent Control was measured by using Abbott's correction formula (W. S. Abbott, “A Method of Computing the Effectiveness of an Insecticide” J. Econ. Entomol 18 (1925), pp. 265-267) as follows. Corrected % Control=100*(X−Y)/X […]

For experiment [2], the system named is Sweetpotato Whitefly Crawler (Bemisia tabaci) (BEMITA). Briefly: Bioassay on Sweetpotato Whitefly Crawler, foliar spray on infested cotton plants. Conditions: 200 ppm foliar spray on cotton, live nymphs counted after 8-9 days, read-out: BEMITA rating (% Mortality; Abbott corrected % control). In kind it is in vivo. The source says:
Example B Bioassays on Sweetpotato Whitefly Crawler (Bemisia tabaci) (BEMITA.)
Cotton plants grown in 3-inch pots, with 1 small (3-5 cm) true leaf, were used at test substrate. The plants were placed in a room with whitely adults. Adults were allowed to deposit eggs for 2-3 days. After a 2-3 day egg-laying period, plants were taken from the adult whitefly room. Adults were blown off leaves using a hand-held Devilbliss sprayer (23 psi). Plants with egg infestation (100-300 eggs per plant) were placed in a holding room for 5-6 days at 82° F. and 50% RH for egg hatch and crawler stage to develop. Four cotton plants were used for each treatment. Compounds (2 mg) were dissolved in 1 mL of acetone solvent, forming stock solutions of 2000 ppm. The stock solutions were diluted 10× with 0.025% Tween 20 in water to obtain a test solution at 200 ppm. A hand-held Devilbliss sprayer was used for spraying a solution to both sides of cotton leaf until runoff. Reference plants (solvent check) were sprayed with the diluent only. Treated plants were held in a holding room for 8-9 days at approximately 82° F. and 50% RH prior to grading. Evaluation was conducted by counting the number of live nymphs per plant under a microscope.

Molecules are shown by their SMILES.

As usually defined, the mortality is the share of the test organisms that died. Consider `CCOC(=O)C1CC(=O)NN1c1cccnc1` (stereo not shown) [Example Compound 10a, Ethyl 5-oxo-2-(pyridin-3-yl)pyrazolidine-3-carboxylate], for which the mortality at 200 ppm in experiment [1] and in experiment [2] was 0 to 80% throughout.

Take `CCOC(=O)C1CC(Cl)=NN1c1cccnc1` (stereo not shown) [Example Compound 10b, Ethyl 3-chloro-1-(pyridin-3-yl)-4,5-dihydro-1H-pyrazole-5-carboxylate]: the mortality at 200 ppm in experiment [1] and in experiment [2] was 0 to 80% each time.

These data come from US10005758B2, “Process for the preparation of 3-(3-chloro-1H-pyrazol-1-yl)pyridine” (Dow AgroSciences LLC, priority 2014, dated 2018).
